Test results: ChEMBL document CHEMBL1132164, “Nonpeptidic HIV protease inhibitors: 6-alkyl-5,6-dihydropyran-2-ones possessing achiral 3-(4-amino/carboxamide-2-t-butyl,5-methylphenyl thio) moiety: antiviral activities and pharmacokinetic properties” (Bioorg Med Chem Lett, 1999)

Key:
[1] = target: T1, Human immunodeficiency virus type 1 protease (Human immunodeficiency virus 1, UniProt Q72874); assay: In vitro binding affinity against HIV protease at pH 6.2.
CCRF-CEM [2] = assay: Tested for the cytotoxic effect in uninfected human lymphocyte derived CEM cells.; format: functional; conditions: read-out: TC50 (the source's name)
HIV protease = assay: (§1) Therapeutic index for HIV protease was determined; conditions: read-out: Therapeutic index
[3] = test system: Human immunodeficiency virus 1; assay: (§2) Tested for antiviral activity against HIV-III B strain infected human lymphocyte derived CEM cells; format: functional, organism-based, CCRF-CEM
Mus musculus [4] = assay: Time taken for EC90 was determined when tested in mouse at dose 25 mg/kg; format: ADME, organism-based; parameters: dose 25 mg/kg; conditions: in vivo
[5] = target: Human immunodeficiency virus type 1 protease (Human immunodeficiency virus 1) (UniProt Q72874); assay: In vitro binding affinity to HIV protease was determined
[6] = Bioavailability was obtained by the comparison of AUC of subcutaneous dosing and AUC of oral dosing in mouse at dose 25 mg/kg; format: ADME, organism-based; conditions: in vivo, read-out: Bioavailabiility
[7] = Maximum concentration obtained in mouse plasma was determined at dose 25 mg/kg; format: ADME, organism-based; parameters: dose 25 mg/kg
[8] = Area under the curve for the compound is obtained at dose 25 mg/kg; format: ADME, organism-based; parameters: dose 25 mg/kg; conditions: mouse, in vivo
[9] = target: T1, Human immunodeficiency virus type 1 protease; assay: Binding affinity towards HIV protease was determined
[10] = Half life in mouse plasma at dose 25 mg/kg; format: ADME, organism-based; parameters: dose 25 mg/kg
[11] = target: T1, Human immunodeficiency virus type 1 protease; assay: In vitro binding affinity against HIV protease at pH 6.2 was determined
[12] = Therapeutic index was determined; conditions: read-out: TI
[13] = as §1
[14] = target: T1, Human immunodeficiency virus type 1 protease; assay: In vitro binding affinity to HIV protease was determined at pH 4.7
CCRF-CEM [15] = assay: as §2; format: functional
[16] = Area under the curve for the compound was obtained when tested in mouse; format: ADME, organism-based; conditions: in vivo
Canis familiaris = species on record: Canis familiaris; assay: Time taken for EC90 was determined when tested in dog; format: ADME, organism-based, Canis lupus familiaris; conditions: in vivo
[17] = Bioavailability was obtained by the comparison of AUC of subcutaneous dosing and AUC of oral dosing in mouse; format: ADME, organism-based; conditions: in vivo, read-out: Bioavailabiility
[18] = Half life in mouse plasma was determined at dose 25 mg/kg; format: ADME, organism-based; parameters: dose 25 mg/kg
[19] = Maximum concentration obtained in mouse plasma was determined; format: ADME, organism-based
[20] = Maximum concentration obtained in dog plasma was determined; format: ADME, organism-based, Canis lupus familiaris
Mus musculus [21] = species on record: Mus musculus; assay: Time taken for EC90 was determined when tested in mouse; format: ADME, organism-based; conditions: in vivo
[22] = Half life in dog plasma was determined at dose 10 mg/kg; format: ADME, organism-based, Canis lupus familiaris; parameters: dose 10 mg/kg
[23] = Bioavailability was obtained by the comparison of AUC of intravenous dosing and AUC of oral dosing in dog; format: ADME, organism-based, Canis lupus familiaris; conditions: in vivo, read-out: Bioavailabiility
[24] = Area under the curve for the compound was obtained when tested in dog; format: ADME, organism-based, Canis lupus familiaris; conditions: in vivo
[25] = Human immunodeficiency virus 1, CCRF-CEM

Row | Compound | IC50 [1] [µM] | CC50 (CCRF-CEM [2]) [µM] | selectivity ratio (HIV protease) | EC50 [3, 25] [µM] | other results
1 | Cc1cc(SC2=C(O)OC(CCc3ccc(O)cc3)(C3CCCC3)CC2=O)c(C(C)(C)C)cc1N (stereo not given) | 0.006 | 82 | 22 | 3.8 | 
2 | Cc1cc(SC2=C(O)OC(CCc3ccc(O)cc3)(C(C)C)CC2=O)c(C(C)(C)C)cc1NC(=O)OC(C)(C)C (stereo not given) | 0.091 |  |  |  | 
3 | Cc1cc(SC2=C(O)OC(CCc3ccc(O)cc3)(C(C)C)CC2=O)c(C(C)(C)C)cc1NC(=O)c1ccc(C(F)(F)F)cc1 (stereo not given) | 0.0121 | 27 | 5 | 5 | 
4 | Cc1cc(SC2=C(O)OC(CCc3ccccc3)(C(C)C)CC2=O)c(C(C)(C)C)cc1NC(=O)c1ccc(C#N)cc1 (stereo not given) | 0.014 | 46 | 6 | 8.3 | 
5 | CCCCCC1(CCc2ccc(O)cc2)CC(=O)C(Sc2cc(C)c(N)cc2C(C)(C)C)=C(O)O1 (stereo not given) | 0.0077 | 24 | < 1 | > 24 | 
6 | Cc1cc(SC2=C(O)OC(C)(CCc3ccc(O)cc3)CC2=O)c(C(C)(C)C)cc1O (stereo not given) |  | 7 | < 1 | > 7 | 
7 | Cc1cc(SC2=C(O)OC(CCc3ccc(O)cc3)(C3CCCCC3)CC2=O)c(C(C)(C)C)cc1N (stereo not given) | 0.02 | 66 | 7 | 10 | 
8 | CC(=O)Nc1cc(C(C)(C)C)c(SC2=C(O)OC(CCc3ccc(O)cc3)(C(C)C)CC2=O)cc1C (stereo not given) | 0.0034 | > 100 | > 21 | 4.8 | 
9 | CCCCC1(CCc2ccc(O)cc2)CC(=O)C(Sc2cc(C)c(N)cc2C(C)(C)C)=C(O)O1 (stereo not given) | 0.0044 | 25 | 7 | 3.7 | 
10 | Cc1cc(SC2=C(O)OC(CCc3ccccc3)(C(C)C)CC2=O)c(C(C)(C)C)cc1N (stereo not given) | 0.0033 | 69 | 36 | 1.9 | 
11 | Cc1cc(SC2=C(O)OC(CCc3ccc(O)cc3)(C(C)C)CC2=O)c(C(C)(C)C)cc1N (stereo not given) | 0.0027 | 92 | 92 | 1 | Hours above EC90 (Mus musculus [4]): 3.2; EC90 [5]: 3.5 µM; bioavailability [6]: 59.2%; Cmax [7]: 21 µM; AUC [8]: 44.8 µM·h; Ki [9]: 0.67 nM; half-life [10]: 2.1 h
12 | Cc1cc(SC2=C(O)OC(CCc3ccc(O)cc3)(C(C)C)CC2=O)c(C(C)(C)C)cc1N(C)C (stereo not given) | 0.011 | 68 | 36 | 1.9 | 
13 | Cc1cc(SC2=C(O)O[C@](CCc3ccc(O)cc3)(C(C)C)CC2=O)c(C(C)(C)C)cc1CO |  |  |  | 0.46 | Ki [11]: 0.09 nM; selectivity ratio [12]: > 200
14 | Cc1cc(SC2=C(O)O[C@](CCc3ccc(O)cc3)(C(C)C)CC2=O)c(C(C)(C)C)cc1N (stereo in doubt; 15R) |  |  |  |  | Therapeutic index [13]: 2; Ki [9]: 13 nM; EC50 ([3]; ccrf-cem): 91 µM
15 | Cc1cc(SC2=C(O)OC(CCc3ccc(O)cc3)(C(C)C)CC2=O)c(C(C)(C)C)cc1NC(=O)c1cccc(C#N)c1 (stereo not given) | 0.015 | 66 | 5 | 14 | 
16 | Cc1cc(SC2=C(O)OC(CCc3ccc(O)cc3)(C(C)C)CC2=O)c(C(C)(C)C)cc1NC(=O)c1ccccn1 (stereo not given) | 0.0061 | 66 | 44 | 1.5 | 

Row | Compound | IC50 [1] [µM] | CC50 (CCRF-CEM [2]) [µM] | selectivity ratio (HIV protease) | EC50 [3, 25] [µM] | other results
17 | Cc1cc(SC2=C(O)OC(CCc3ccc(O)cc3)(C(C)C)CC2=O)c(C(C)(C)C)cc1NC(=O)c1ccncc1 (stereo not given) | 0.00508 | > 100 | > 20 | 5.1 | 
18 | Cc1cc(SC2=C(O)OC(CCc3ccc(O)cc3)(C(C)C)CC2=O)c(C(C)(C)C)cc1NC(=O)CC(C)(C)C (stereo not given) | 0.06 | 67 | 4 | 16 | 
19 | Cc1ccc(C(C)(C)C)c(SC2=C(O)O[C@](CCc3ccccc3)(c3ccccc3)CC2=O)c1 |  |  |  |  | IC50 [14]: 0.01 µM
20 | Cc1cc(SC2=C(O)O[C@](CCc3ccc(N)cc3)(C(C)C)CC2=O)c(C(C)(C)C)cc1CO |  |  |  |  | selectivity ratio [12]: 1050
21 | Cc1cc(SC2=C(O)OC(CCc3ccc(O)cc3)(CC(C)C)CC2=O)c(C(C)(C)C)cc1N (stereo not given) | 0.0135 | 62 | 8 | 8.1 | 
22 | Cc1cc(SC2=C(O)OC(CCc3ccc(O)cc3)(C(C)C)CC2=O)c(C(C)(C)C)cc1NC(=O)c1cccnc1 (stereo not given) | 0.0051 | > 100 | > 20 | 4.9 | 
23 | Cc1cc(SC2=C(O)O[C@](CCc3ccc(O)cc3)(C(C)C)CC2=O)c(C(C)(C)C)cc1N (stereo in doubt; 15S) |  | 211 |  |  | EC90 (CCRF-CEM [15]): 1 µM; AUC [16]: 30 µM·h; Hours above EC90 (Canis familiaris): 8.5; bioavailability [17]: 100%; half-life [18]: 1.2 h; Cmax [19]: 21.7 µM; Therapeutic index [13]: 422; Ki [9]: 0.07 nM; Cmax [20]: 71 µM; Hours above EC90 (Mus musculus [21]): 4; EC50 ([3]; ccrf-cem): 0.5 µM; half-life [22]: 1.7 h; bioavailability [23]: 56%; AUC [24]: 138 µM·h
24 | CC(=O)Nc1cc(C(C)(C)C)c(SC2=C(O)OC(CCc3ccccc3)(C(C)C)CC2=O)cc1C (stereo not given) | 0.0035 | 83 | 46 | 1.8 | 
25 | Cc1cc(SC2=C(O)OC(C)(CCc3ccc(O)cc3)CC2=O)c(C(C)(C)C)cc1N (stereo not given) | 0.0096 | 66 | 7 | 9.4 | 
26 | CCCC1(CCc2ccc(O)cc2)CC(=O)C(Sc2cc(C)c(N)cc2C(C)(C)C)=C(O)O1 (stereo not given) | 0.0038 | 62 | 15 | 4.1 | 
27 | Cc1cc(SC2=C(O)OC(CCc3ccc(O)cc3)(C(C)C)CC2=O)c(C(C)(C)C)cc1NC(=O)c1ccccc1 (stereo not given) | 0.0132 | 66 | 12 | 5.4 | 
28 | Cc1cc(SC2=C(O)OC(CCc3ccc(O)cc3)(C3CC3)CC2=O)c(C(C)(C)C)cc1N (stereo not given) | 0.0041 | 49 | 20 | 2.5 | 
29 | Cc1cc(SC2=C(O)OC(CCc3ccccc3)(c3ccccc3)CC2=O)c(C(C)(C)C)cc1N (stereo not given) | 0.011 | 64 | < 1 | > 64 | 
30 | Cc1cc(SC2=C(O)OC(CCc3ccc(O)cc3)(C(C)C)CC2=O)c(C(C)(C)C)cc1NC(=O)c1ccc(C#N)cc1 (stereo not given) | 0.005 | 66 | 16 | 4.1 | 
31 | Cc1cc(SC2=C(O)OC(CCc3ccc(N)cc3)(C(C)C)CC2=O)c(C(C)(C)C)cc1N (stereo not given) | 0.0075 | 30 | 33 | 0.9 | 
